In US20230399312A1, “SUBSTITUTED PYRIMIDINES AND METHODS OF USE” (THERAVANCE BIOPHARMA R&D IP, LLC, priority 2020, published 2023):

Tests used:
[1] = test system: TGF-β-stimulated SMAD3 phosphorylation in BEAS-2B cells; assay: Cellular ALK5 potency assay, inhibition of TGF-β stimulated pSMAD3 formation in BEAS-2B cells; assay type: cell-based; conditions: Homo sapiens, pSMAD3, TGF-β 10 ng/mL, read-out: BEAS2B pIC50 (converted)
Method in brief: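 Reported as pIC50, potency reflects dose-dependent loss of AlphaLISA pSMAD3 signal versus TGF-β-stimulated, compound-free BEAS-2B cells. Compound was applied for 1 h in BSA-containing HBSS buffer before a 30-min challenge with TGF-β at 10 ng/mL final.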

[2] = target: T1, recombinant human ALK5 (TGF-βR1) protein (Homo sapiens, UniProt P36897); assay: Biochemical ALK5 (TGF-βR1) assay to measure pKi (LANCE Ultra ULight kinase assay); conditions: apparent pKi, converted from pIC50 by Cheng-Prusoff
T1 construct: purchased Life Technologies PR9075A
T1 sequence (P36897 34-503): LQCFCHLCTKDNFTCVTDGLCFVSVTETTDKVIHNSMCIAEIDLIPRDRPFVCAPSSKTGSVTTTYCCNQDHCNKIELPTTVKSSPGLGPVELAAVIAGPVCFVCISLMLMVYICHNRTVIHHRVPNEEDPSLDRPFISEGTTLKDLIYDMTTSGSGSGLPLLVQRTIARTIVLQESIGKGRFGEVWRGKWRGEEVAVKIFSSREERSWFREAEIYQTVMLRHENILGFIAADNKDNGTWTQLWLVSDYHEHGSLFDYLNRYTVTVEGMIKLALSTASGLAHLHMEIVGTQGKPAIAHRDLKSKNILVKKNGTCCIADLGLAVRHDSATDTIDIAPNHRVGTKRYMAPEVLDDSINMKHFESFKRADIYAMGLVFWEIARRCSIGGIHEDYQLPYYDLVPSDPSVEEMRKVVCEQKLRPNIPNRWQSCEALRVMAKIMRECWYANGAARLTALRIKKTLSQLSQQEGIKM
Method in brief: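 Read-out was LANCE Ultra TR-FRET with a europium anti-phospho-Topo IIα Thr1342 antibody after EDTA quench. Kinase reaction ran 60 min at 37 °C with ATP added from a 125 μM 5× stock, after 60 min compound–enzyme equilibration at room temperature. Values are pKi from Cheng-Prusoff conversion of fitted pIC50.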

Which IC50 [1] does the source give for `Cc1cccc(-c2nccc(Nc3ccnc(Nc4ccc(N(C)[C@H]5CCNC5)cc4)n3)n2)n1` [Compound 116, N4-[2-(6-methyl-2-pyridyl)pyrimidin-4-yl]-N2-[4-[methyl-[(3S)-pyrrolidin-3-yl]amino]phenyl]pyrimidine-2,4-diamine] here?
Its IC50 is 25.1 to 158 nM.

What about the Ki [2] of the same compound?
The Ki was 0.0398 to 0.316 nM.

Which IC50 [1] does the source give for `Cc1cccc(-c2nccc(Nc3ccnc(Nc4cccc(NCC5CNC5)c4)n3)n2)n1` [Compound 118, N2-[3-(azetidin-3-ylmethylamino)phenyl]-N4-[2-(6-methyl-2-pyridyl)pyrimidin-4-yl]pyrimidine-2,4-diamine] here?
Its IC50 is 25.1 to 158 nM.

And the Ki [2]?
Its Ki is 0.0398 to 0.316 nM.

For `Cc1cccc(-c2nccc(Nc3ccnc(Nc4ccc(S(N)(=O)=O)cn4)n3)n2)n1` [Compound 119, 6-[[4-[[2-(6-methyl-2-pyridyl)pyrimidin-4-yl]amino]pyrimidin-2-yl]amino]pyridine-3-sulfonamide], which IC50 [1] is on record?
Its IC50 is 25.1 to 158 nM.

What about the Ki [2] of the same compound?
Its Ki is 3.98 to 31.6 nM.

With `Cc1cccc(-c2nccc(Nc3ccnc(Nc4ccc(N5CCNCC5)c(F)c4)n3)n2)n1` [Compound 120, N2-(3-fluoro-4-piperazin-1-yl-phenyl)-N4-[2-(6-methyl-2-pyridyl)pyrimidin-4-yl]pyrimidine-2,4-diamine] as the compound, how does the IC50 [1] read?
Its IC50 is 25.1 to 158 nM.

And the Ki [2]?
Its Ki is 0.0398 to 0.316 nM.

With `Cc1cccc(-c2nccc(Nc3ccnc(Nc4ccc(N5CCNCC5)cn4)n3)n2)n1` [Compound 121, N4-(2-(6-methylpyridin-2-yl)pyrimidin-4-yl)-N2-(5-(piperazin-1-yl)pyridin-2-yl)pyrimidine-2,4-diamine] as the compound, how does the IC50 [1] read?
The IC50 was 25.1 to 158 nM.

What about the Ki [2] of the same compound?
Its Ki is 0.398 to 3.16 nM.

Which results are given for `Cc1cccc(-c2nccc(Nc3ccnc(Nc4ccc(S(=O)(=O)N(C)C5CCNCC5)cc4)n3)n2)n1` [Compound 122, N-methyl-4-[[4-[[2-(6-methyl-2-pyridyl)pyrimidin-4-yl]amino]pyrimidin-2-yl]amino]-N-(4-piperidyl)benzenesulfonamide]?
IC50 [1]: 25.1 to 158 nM; Ki [2]: 0.0398 to 0.316 nM

What does the source list for `Cc1cccc(-c2nccc(Nc3ccnc(Nc4ccc(N5CCC(N6CCCC6)CC5)cc4)n3)n2)n1` [Compound 123, N4-[2-(6-methyl-2-pyridyl)pyrimidin-4-yl]-N2-[4-(4-pyrrolidin-1-yl-1-piperidyl)phenyl]pyrimidine-2,4-diamine]?
IC50 [1]: 25.1 to 158 nM; Ki [2]: ≤ 0.0316 nM

With `Cc1cccc(-c2nccc(Nc3ccnc(Nc4ccc(CN5CCC(C(=O)O)C5)cc4)n3)n2)n1` (stereo not shown) [Compound 124, 1-[[4-[[4-[[2-(6-methyl-2-pyridyl)pyrimidin-4-yl]amino]pyrimidin-2-yl]amino]phenyl]methyl] pyrrolidine-3-carboxylic acid] as the compound, how does the IC50 [1] read?
Its IC50 is 25.1 to 158 nM.

And the Ki [2]?
Its Ki is 0.0398 to 0.316 nM.

Which results are given for `Cc1cccc(-c2nccc(Nc3ccnc(Nc4cccc(NC(=O)NC5CNC5)c4)n3)n2)n1` [Compound 125, 1-(azetidin-3-yl)-3-[3-[[4-[[2-(6-methyl-2-pyridyl)pyrimidin-4-yl]amino]pyrimidin-2-yl]amino]phenyl]urea]?
IC50 [1]: 25.1 to 158 nM; Ki [2]: 0.0398 to 0.316 nM

`Cc1cccc(-c2nccc(Nc3ccnc(Nc4ccc(Cl)c(N)c4)n3)n2)n1` [Compound 126, N2-(3-amino-4-chloro-phenyl)-N4-[2-(6-methyl-2-pyridyl)pyrimidin-4-yl]pyrimidine-2,4-diamine] was tested. Which IC50 [1] did it give?
Its IC50 is no more than 20 nM.

And the Ki [2]?
The Ki was 0.398 to 3.16 nM.

With `COC1CN(Cc2ccc(Nc3nccc(Nc4ccnc(-c5cccc(C)n5)n4)n3)cc2)C1` [Compound 127, N2-[4-[(3-methoxyazetidin-1-yl)methyl]phenyl]-N4-[2-(6-methyl-2-pyridyl)pyrimidin-4-yl]pyrimidine-2,4-diamine] as the compound, how does the IC50 [1] read?
Its IC50 is 25.1 to 158 nM.

And the Ki [2]?
The Ki was 0.0398 to 0.316 nM.

What does the source list for `Cc1cccc(-c2nccc(Nc3ccnc(Nc4ccc(C)c(NC(=O)C5CCNCC5)c4)n3)n2)n1` [Compound 128, N-[2-methyl-5-[[4-[[2-(6-methyl-2-pyridyl)pyrimidin-4-yl]amino]pyrimidin-2-yl]amino]phenyl]piperidine-4-carboxamide]?
IC50 [1]: ≤ 20 nM; Ki [2]: 0.0398 to 0.316 nM

For `Cc1cccc(-c2nccc(Nc3ccnc(Nc4ccc(CN5CCN6CCCC6C5)cc4)n3)n2)n1` (stereo not shown) [Compound 129, N2-[4-(3,4,6,7,8,8a-hexahydro-1H-pyrrolo[1,2-a]pyrazin-2-ylmethyl)phenyl]-N4-[2-(6-methyl-2-pyridyl)pyrimidin-4-yl]pyrimidine-2,4-diamine], which IC50 [1] is on record?
Its IC50 is 25.1 to 158 nM.

What about the Ki [2] of the same compound?
Its Ki is 0.0398 to 0.316 nM.

Which IC50 [1] does the source give for `Cc1cccc(-c2nccc(Nc3ccnc(Nc4ccc(F)c(CN5C[C@@H](C)N[C@@H](C)C5)c4)n3)n2)n1` [Compound 130, N2-[4-fluoro-3-[[rac-(3R,5S)-3,5-dimethylpiperazin-1-yl]methyl]phenyl]-N4-[2-(6-methyl-2-pyridyl)pyrimidin-4-yl]pyrimidine-2,4-diamine] here?
The IC50 was 25.1 to 158 nM.

And the Ki [2]?
The Ki was 0.0398 to 0.316 nM.

Which results are given for `Cc1cccc(-c2nccc(Nc3ccnc(Nc4ccc(CN5CC(O)C5)cc4)n3)n2)n1` [Compound 131, 1-[[4-[[4-[[2-(6-methyl-2-pyridyl)pyrimidin-4-yl]amino]pyrimidin-2-yl]amino]phenyl]methyl] azetidin-3-ol]?
IC50 [1]: 25.1 to 158 nM; Ki [2]: 0.0398 to 0.316 nM

How did the IC50 [1] turn out when `Cc1cccc(-c2nccc(Nc3ccnc(Nc4ccc(CN5CCNC[C@@H]5CO)cc4)n3)n2)n1` [Compound 132, [(2R)-1-[[4-[[4-[[2-(6-methyl-2-pyridyl)pyrimidin-4-yl]amino]pyrimidin-2-yl]amino]phenyl]methyl]piperazin-2-yl]methanol] was run?
Its IC50 is 25.1 to 158 nM.

What about the Ki [2] of the same compound?
Its Ki is 0.0398 to 0.316 nM.

How did the IC50 [1] turn out when `Cc1cccc(-c2nccc(Nc3ccnc(Nc4ccc(C5CCNCC5)cc4)n3)n2)n1` [Compound 133, N4-[2-(6-methyl-2-pyridyl)pyrimidin-4-yl]-N2-[4-(4-piperidyl)phenyl]pyrimidine-2,4-diamine] was run?
The IC50 was 25.1 to 158 nM.

And the Ki [2]?
The Ki was 0.0398 to 0.316 nM.

How did the IC50 [1] turn out when `Cc1cccc(-c2nccc(Nc3ccnc(Nc4cccc(NC(=O)C5CCN(CCN(C)C)CC5)c4)n3)n2)n1` [Compound 134, 1-[2-(dimethylamino)ethyl]-N-[3-[[4-[[2-(6-methyl-2-pyridyl)pyrimidin-4-yl]amino]pyrimidin-2-yl]amino]phenyl]piperidine-4-carboxamide] was run?
Its IC50 is 25.1 to 158 nM.

And the Ki [2]?
Its Ki is 0.0398 to 0.316 nM.

How did the IC50 [1] turn out when `Cc1cccc(-c2nccc(Nc3ccnc(Nc4ccc(Cl)c(NC(=O)C5CCNCC5)c4)n3)n2)n1` [Compound 135, N-[2-chloro-5-[[4-[[2-(6-methyl-2-pyridyl)pyrimidin-4-yl]amino]pyrimidin-2-yl]amino]phenyl]piperidine-4-carboxamide] was run?
The IC50 was no more than 20 nM.

And the Ki [2]?
The Ki was 0.0398 to 0.316 nM.

For `Cc1cccc(-c2nccc(Nc3ccnc(Nc4ccc(N5CCN(Cc6ccccn6)CC5)cc4)n3)n2)n1` [Compound 136, N4-[2-(6-methyl-2-pyridyl)pyrimidin-4-yl]-N2-[4-[4-(2-pyridylmethyl)piperazin-1-yl]phenyl]pyrimidine-2,4-diamine], which IC50 [1] is on record?
The IC50 was 25.1 to 158 nM.

And the Ki [2]?
The Ki was 0.0398 to 0.316 nM.

What does the source list for `CNC1CCN(c2ccc(Nc3nccc(Nc4ccnc(-c5cc(Cl)ccc5F)n4)n3)cc2)CC1` [Compound 137, N4-[2-(5-chloro-2-fluoro-phenyl)pyrimidin-4-yl]-N2-[4-[4-(methylamino)-1-piperidyl]phenyl]pyrimidine-2,4-diamine]?
IC50 [1]: 25.1 to 158 nM; Ki [2]: 0.0398 to 0.316 nM

`Cc1cccc(-c2nccc(Nc3ccnc(Nc4ccc(CN5CCCC(C(=O)OC6CNC6)C5)cc4)n3)n2)n1` (stereo not shown) [Compound 138, azetidin-3-yl 1-[[4-[[4-[[2-(6-methyl-2-pyridyl)pyrimidin-4-yl]amino]pyrimidin-2-yl]amino]phenyl]methyl] piperidine-3-carboxylate] was tested. Which IC50 [1] did it give?
Its IC50 is 25.1 to 158 nM.

What about the Ki [2] of the same compound?
The Ki was 0.0398 to 0.316 nM.

What does the source list for `Cc1cccc(-c2nccc(Nc3ccnc(Nc4ccc(CN5CCC[C@@H](C(=O)O[C@H]6CCN(C)C6)C5)cc4)n3)n2)n1` [Compound 139, [(3S)-1-methylpyrrolidin-3-yl] (3R)-1-[[4-[[4-[[2-(6-methyl-2-pyridyl)pyrimidin-4-yl]amino]pyrimidin-2-yl]amino]phenyl]methyl] piperidine-3-carboxylate]?
IC50 [1]: ≤ 20 nM; Ki [2]: 0.0398 to 0.316 nM

How did the IC50 [1] turn out when `Cc1cccc(-c2nccc(Nc3ccnc(Nc4nc(C(=O)NCC5(CO)CNC5)cs4)n3)n2)n1` [Compound 140, N-[[3-(hydroxymethyl)azetidin-3-yl]methyl]-2-[[4-[[2-(6-methyl-2-pyridyl)pyrimidin-4-yl]amino]pyrimidin-2-yl]amino]thiazole-4-carboxamide] was run?
Its IC50 is 25.1 to 158 nM.

And the Ki [2]?
Its Ki is 0.0398 to 0.316 nM.

What does the source list for `Cc1cccc(-c2nccc(Nc3ccnc(Nc4cccc(CN5CCOCC5)c4)n3)n2)n1` [Compound 141, N4-[2-(6-methyl-2-pyridyl)pyrimidin-4-yl]-N2-[3-(morpholinomethyl)phenyl] pyrimidine-2,4-diamine]?
IC50 [1]: 25.1 to 158 nM; Ki [2]: 0.0398 to 0.316 nM

For `Cc1cccc(-c2nccc(Nc3ccnc(Nc4cc(C(=O)OCC5CNC5)cs4)n3)n2)n1` [Compound 142, azetidin-3-ylmethyl 5-((4-((2-(6-methylpyridin-2-yl)pyrimidin-4-yl)amino)pyrimidin-2-yl)amino)thiophene-3-carboxylate], which IC50 [1] is on record?
Its IC50 is 25.1 to 158 nM.

And the Ki [2]?
The Ki was 0.0398 to 0.316 nM.
